Experimental data from patent US12673073B2, “FasL-engineered biomaterials with immunomodulatory function” (University of Louisville Research Foundation, Inc., priority 2017, dated 2026).

How the values were obtained:
SA = SA (Streptomyces avidinii, UniProt P22629); settings: cited from earlier work
avidin = avidin (Gallus gallus, UniProt P02701); settings: cited from earlier work
[1] = tested on: allogeneic (Balb/c) islets in streptozotocin-diabetic C57BL/6 mice; assay: Allogeneic islet transplantation under the kidney capsule of diabetic mice; format: in vivo, mouse; settings: rapamycin injections 0.2 mg/kg daily 15 doses, without SA-FasL-engineered microgels
Procedure: Islet transplantation. BALB/c pancreatic islets were isolated using Liberase TL as a digestive enzyme (Roche Life Science) and purified by a Ficoll density gradient as previously published. […] To biotinylate islets, overnight cultured islets were incubated in 5 μM EZ-Link Sulfo-NHS-LC-Biotin (Thermo Scientific) for 30 min at room temperature, washed extensively with PBS to remove unbound biotin solution. […] Approximately, 500 islets were co-transplanted with 1000 microgels into streptozotocin diabetic (200 mg/kg i.p., diabetes (>250 mg/dL) confirmed on two consecutive days) C57BL/6 or B6.129(Cg)-Foxp3^tm3(DTR/GFP)Ayr (C57BL/6.FoxP3^EGFP/DTR) recipients, where indicated. For Treg depletion, islet graft recipients were injected i.p. with diphtheria toxin (50 μg/kg body weight) and depletion was confirmed 3 days later in peripheral blood lymphocytes using flow cytometry. Selected groups were also treated i.p. with rapamycin at 0.2 mg/kg daily for 15 doses starting the day of transplantation. Unmodified BALB/c islets co-transplanted with unmodified PEG gels were used as controls. Animals were monitored for blood glucose and >250 mg/dL blood glucose levels for two consecutive daily measurements were considered rejected. […] Blood glucose levels were assessed by tail prick before injection and 10, 20, 30, 60, 90, 120 minutes after injection. […]

Sequence of avidin (P02701 25-152): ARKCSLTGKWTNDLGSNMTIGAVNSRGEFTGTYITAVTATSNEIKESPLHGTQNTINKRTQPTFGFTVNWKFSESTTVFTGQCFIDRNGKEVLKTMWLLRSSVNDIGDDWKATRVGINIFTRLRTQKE
Sequence of SA (P22629 25-183): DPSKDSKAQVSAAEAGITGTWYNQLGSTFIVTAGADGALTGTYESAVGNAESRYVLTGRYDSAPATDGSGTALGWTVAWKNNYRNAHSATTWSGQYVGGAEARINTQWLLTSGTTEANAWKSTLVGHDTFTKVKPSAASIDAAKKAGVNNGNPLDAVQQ

O=C(O)CCCC[C@@H]1SC[C@@H]2NC(=O)N[C@@H]21 [biotin]
affinity for SA (SA): 10^13 M^−1
affinity for avidin (avidin): 10^15 M^−1

CO[C@H]1C[C@@H]2CC[C@@H](C)[C@@](O)(O2)C(=O)C(=O)N2CCCC[C@H]2C(=O)O[C@H]([C@H](C)C[C@@H]2CC[C@@H](O)[C@H](OC)C2)CC(=O)[C@H](C)/C=C(\C)[C@@H](O)[C@@H](OC)C(=O)[C@H](C)C[C@H](C)/C=C/C=C/C=C/1C [rapamycin]
median survival time (MST) of islet grafts [1]: 36 days
